Entries after “also recorded” stand apart in the source; their conditions may differ.
Tests used:
apelin receptor = test: Apelin receptor protein levels in rat TA after chronic dosing; format: in vivo; details: rats, 5 consecutive days oral, 50 mg/kg QD and 200 mg/kg BID
From the text: (§1) Administration of an apelin receptor agonist can induce the phosphorylation and activation of AMPK in heart tissue. Tissue samples were lysed using T-PER tissue protein extraction reagent (Thermo Fisher Scientific #78510) containing EDTA and protease/phosphatase inhibitors on the Omni Bead Ruptor 12 Homogenizer. Total protein was extracted then quantified using Pierce™ BCA Protein Assay Kit. Loaded equal amounts of total protein per lane on a 4-12% SDS-PAGE gel and transferred to PVDF membrane. Membranes were blocked and blotted with anti-phospho-AMPKα-Thr172 (Cell Signaling Technology, CST #2535), total-AMPKα (CST #2532), anti-phospho-Akt-SeR^473 (CST #4060), total-Akt (CST #4685), anti-phospho-ERK-1/2-Thr202/Tyr204 of Erk1 and Thr185/Tyr187 of Erk2 (CST #4370), total-ERK-1/2 (CST #9107) or anti-APLNR receptor (abcam, ab214369) antibodies. Band intensities were normalized to loading control anti-β-Actin (CST #3700) or anti-GAPDH (abcam, ab181602) antibodies. Immunoreactive proteins were detected using SuperSignal™ West Femto Substrate (Thermo Fisher Scientific #34095) and quantified by Image Lab™ software (Bio-Rad Laboratories, Inc.).
The difference between tissues was conserved among rodent species: In rats, as in mice, apelin receptor levels in rat tissue were 2-fold higher in heart than in soleus, FIGS. 5A-5B. […]

[1] = system: Twenty-month-old male C57/B16 mice; test: Disuse-induced muscle atrophy (hindlimb casting) in aged mice; format: in vivo
From the text: Limb immobilization causes a loss of gross skeletal muscle mass accompanied by a significant decrease in apelin transcript levels.
One week into the treatment, mice underwent modified hindlimb casting on one limb. Mice were anesthetized with isoflurane inhalation and the hindlimb wiped with povidone-iodine, then ethanol, and loosely wrapped in surgical gauze. A custom-made plastic immobilization device was placed on the limb, with the foot in full extension, so as to result in the maximal in vivo unloading of the plantarflexor group. The device was fixed to the hindlimb using Vetbond and the animal returned to its cage. After 3 weeks of treatment following casting, mice were euthanized 1 hour after the final ZT1 dose, and tissues isolated, weighed, then flash frozen in liquid nitrogen for subsequent western blot analysis.

[2] = system: Pax7, MyoD, MyoG, Myf5, MyHC3, and MyHC8; test: CTX-induced muscle injury: transcript levels of regeneration genes; format: in vivo, mice
Procedure: Impairment of muscle regeneration can contribute to age-related muscle weakness. This is particularly true in aged individuals who engage in physical activity. Exercise-induced muscle hypertrophy is linked to the capacity of muscle stem cells to be activated and promote regeneration. […] Mice were i.p injected with buprenorphine (Centravet, 0.1 mg/kg) 30 minutes before injury and the day after. The day of the injury, mice were anesthetized with isoflurane inhalation and hindlimbs were shaved. Then, 10 μM of cardiotoxin (CTX, Latoxan, #L8102) was injected through two injections of 25 μl into the left tibialis muscle and two injections of 50 μl into the left gastrocnemius muscle, using a 22-gauge needle (Hamilton). Mice were euthanized 3 and 7 days after injury by cervical dislocation, muscles (PBS- and CTX-injected) were cut in two parts, one being snap frozen into liquid nitrogen for total RNA extraction and the other part being embedded into OCT, frozen in isopentane cooled with liquid nitrogen for histological analysis.

pAkt = test: Western blot of pAkt in soleus after oral BGE-105; format: in vivo; details: mice, oral 45 mg/kg, vs vehicle
From the text: as §1
Apelin can induce the phosphorylation of Akt in the soleus muscle and improve glucose homeostasis. […]

[3] = 20-month-old immobilized mice, 50 mg/kg BID, 50 mg/kg
[4] = gastrocnemius, aged mice, 3 or 7 days, apelin 0.5 μmol/kg/day, BGE-105 50 and 200 mg/kg/day
[5] = gastrocnemius, young mice, 3 or 7 days, apelin 0.5 μmol/kg/day, BGE-105 50 and 200 mg/kg/day
[6] = tibialis anterior, aged mice, 7 days, apelin 0.5 μmol/kg/day, BGE-105 50 and 200 mg/kg/day
[7] = tibialis, young mice, 3 or 7 days, apelin 0.5 μmol/kg/day, BGE-105 50 and 200 mg/kg/day

COc1cccc(OC)c1-n1c(NS(=O)(=O)[C@@H](C)[C@H](C)c2ncc(C)cn2)nnc1-c1cncc(C)c1 [BGE-105, (2S,3R)—N-(4-(2,6-dimethoxyphenyl)-5-(5-methyl-3-pyridinyl)-4H-1,2,4-triazol-3-yl)-3-(5-methyl-2-pyrimidinyl)-2-butanesulfonamide]
apelin receptor levels in the TA (apelin receptor): modest but non-significant decrease | extensor digitorum longus (EDL) muscle weight / atrophy [1, 3]: did not measurably atrophy; also recorded: near significant improvement in muscle weight; also recorded: near significant decrease in the percent atrophy | gastrocnemius atrophy [1, 3]: less effective; also recorded: no improvement | soleus muscle weight / atrophy [1, 3]: modest rescue in atrophy; also recorded: near significant improvement in muscle weight; also recorded: marginal improvement in the percent atrophy | tibialis anterior muscle weight / percent atrophy vs vehicle [1, 3]: significant improvement in maintaining muscle weight; also recorded: significant decrease in the percent atrophy | decrease in wet weight of tibialis anterior (TA) muscle ([1]; casted limb, 50 mg/kg BID P.O., 21 days immobilization): 3% | muscle atrophy / loss of muscle mass induced by immobilization ([1]; immobilized aged mice, orally dosed, vs vehicle): significantly reduced muscle atrophy; also recorded: protected against some loss of muscle mass | expression levels of genes involved in muscle regeneration (Pax7, MyoD, MyoG, Myf5, MyHC3, MyHC8) ([2]; aged (18-month-old) mice, tibialis, 7 days after CTX, vs PBS): significantly higher levels of several mRNA transcripts; also recorded: dramatically higher | effect on regeneration gene expression in gastrocnemius compared with tibialis ([2]; aged mice, gastrocnemius): not as prominent | Pax7 transcript levels ([2]; gastrocnemius, aged (18-month-old) mice, 3 or 7 days, apelin 0.5 μmol/kg/day, BGE-105 50 and 200 mg/kg/day): no significant change | MyoD transcript levels ([2]; gastrocnemius, aged mice, 3 and 7 days, apelin 0.5 μmol/kg/day, BGE-105 50 and 200 mg/kg/day): significant increase | Myf5 transcript levels [2, 4]: no significant change | MyoG transcript levels [2, 4]: no significant change | MyHC8 transcript levels ([2]; gastrocnemius, aged mice, any time point, any treatment): does not show a change | MyHC3 transcript levels ([2]; gastrocnemius, aged mice, only at 7 days, BGE-105 200 mg/kg/day): significant increase | Pax7 transcript levels ([2]; gastrocnemius, young (3-month-old) mice, 3 or 7 days, apelin 0.5 μmol/kg/day, BGE-105 50 and 200 mg/kg/day): no change | Myf5 transcript levels [2, 5]: no change | MyoD transcript levels [2, 5]: no change | MyoG transcript levels [2, 5]: no change | MyHC8 transcript levels ([2]; gastrocnemius, young mice, 3 days, apelin 0.5 μmol/kg/day, BGE-105 50 and 200 mg/kg/day): non-significant increase | MyHC3 transcript levels ([2]; gastrocnemius, young mice, only 3 days, BGE-105 50 mg/kg/day): increase | Pax7 transcript levels ([2]; tibialis anterior, aged (18-month-old) mice, 7 days post cardiotoxin, apelin 0.5 μmol/kg/day, BGE-105 50 and 200 mg/kg/day): significant increase | MyoD transcript levels ([2]; tibialis anterior, aged mice, 3 and 7 days post cardiotoxin, apelin 0.5 μmol/kg/day, BGE-105 50 and 200 mg/kg/day): significant increase | MyHC3 transcript levels [2, 6]: significant increase | Myf5 transcript levels [2, 6]: significant change | MyoG transcript levels [2, 6]: significant increase | Pax7 transcript levels ([2]; tibialis, young (3-month-old) mice, 3 or 7 days, apelin 0.5 μmol/kg/day, BGE-105 50 and 200 mg/kg/day): no change | MyHC3 transcript levels [2, 7]: no significant change | MyHC8 transcript levels [2, 7]: no significant change | Myf5 transcript levels [2, 7]: no difference | MyoD transcript levels [2, 7]: no significant increase | MyoG transcript levels [2, 7]: no difference | effect on regeneration gene expression in young mice ([2]; young (3-month-old) mice): not as effective | pAkt levels in the soleus (pAkt): increased levels; also recorded: marginally significant increase

Source: US20240252493A1, “Apelin Receptor Modulators for Treating Age-Related Muscle Conditions” (BIOAGE LABS, INC., priority 2021, published 2024)
